According to US20220232834A1, “PSEUDOMONAS CHLORORAPHIS SPECIES AND ITS USE IN THE CONTROL OF DISEASES CAUSED BY BACTERIA AND FUNGI” (T3 BIOSCIENCE, LLC, priority 2021, published 2022):
Converted amounts (≈) assume the structure as drawn.

How the values were obtained:
Type in all cases: cell-based
[1] = test system: Ralstonia solanacearum K60; test: microbe, parasite or virus in culture; conditions: K60, read-out: Diameter of Growth Inhibition Zone
[2] = test system: Xanthomonas arboricola pv. juglandis 417; test: microbe, parasite or virus in culture; conditions: read-out: Diameter of Growth Inhibition Zone
Erwinia amylovora CA11 = test: microbe, parasite or virus in culture; conditions: CA11, read-out: Diameter of Growth Inhibition Zone
Erwinia amylovora 88 = test: microbe, parasite or virus in culture; conditions: Erwinia amylovora, 88, read-out: Diameter of Growth Inhibition Zone
[3] = test system: Pectobacterium parmentieri UPP163 936; test: microbe, parasite or virus in culture; conditions: UPP163936, read-out: Diameter of Growth Inhibition Zone
[4] = test system: Xanthomonas euvesicatoria 75-3; test: microbe, parasite or virus in culture; conditions: 753
[5] = test system: Ralstonia solanacearum Pss4; test: microbe, parasite or virus in culture; conditions: PSS4, read-out: Diameter of Growth Inhibition Zone
[6] = test system: Pectobacterium atrosepticum 942; test: microbe, parasite or virus in culture; conditions: Pectobacterium atrosepticum, 942, read-out: Diameter of Growth Inhibition Zone
[7] = test system: Pectobacterium carotovorum subsp. carotovorum wpp14 945; test: microbe, parasite or virus in culture; conditions: read-out: Diameter of Growth Inhibition Zone
Erwinia amylovora 1189 = test: microbe, parasite or virus in culture; conditions: Erwinia amylovora, 1189, read-out: Diameter of Growth Inhibition Zone
Dickeya dadantii 3937 = test: microbe, parasite or virus in culture; conditions: Dickeya dadantii, 3937, read-out: Diameter of Growth Inhibition Zone
Erwinia amylovora DM1 = test: microbe, parasite or virus in culture; conditions: DM1, read-out: Diameter of Growth Inhibition Zone
[8] = test system: Pseudomonas syringae. pv syringae 7046; test: microbe, parasite or virus in culture; conditions: read-out: Diameter of Growth Inhibition Zone
[9] = test system: Xanthomonas axonopodis pv. citri N40-SO5; test: plate diffusion assay; conditions: read-out: Diameter of Growth Inhibition Zone
[10] = test system: Ralstonia solanacearum K60; test: microbe, parasite or virus in culture; conditions: Ralstonia solanacearum, K60
[11] = test system: Pseudomonas syringae. pv. lachrymans 1188-1; test: microbe, parasite or virus in culture; conditions: read-out: Diameter of Growth Inhibition Zone
[12] = test system: Xanthomonas arboricola pv. juglandis 219; test: microbe, parasite or virus in culture; conditions: read-out: Diameter of Growth Inhibition Zone
[13] = test system: Xanthomonas campestris pv. pruni; test: microbe, parasite or virus in culture; conditions: read-out: Diameter of Growth Inhibition Zone
[14] = test system: Pseudomonas syringae. pv. tomato PT30; test: microbe, parasite or virus in culture
[15] = test system: Pseudomonas syringae. pv. tomato PT30; test: microbe, parasite or virus in culture; conditions: read-out: Diameter of Growth Inhibition Zone
[16] = test system: Pseudomonas savastanoi pv. savastanoi; test: microbe, parasite or virus in culture; conditions: read-out: Diameter of Growth Inhibition Zone
Erwinia amylovora 110 = test: microbe, parasite or virus in culture; conditions: Erwinia amylovora, 110, read-out: Diameter of Growth Inhibition Zone
[17] = test system: Xanthomonas axonopodis pv. citri-Miami XC2002-00010; test: plate diffusion assay; conditions: read-out: Diameter of Growth Inhibition Zone
[18] = test system: Xanthomonas campestris pv. vesicatoria XV-16; test: microbe, parasite or virus in culture; conditions: read-out: Diameter of Growth Inhibition Zone
[19] = test system: Pectobacterium carotovorum subsp brasillensis 944; test: microbe, parasite or virus in culture; conditions: read-out: Diameter of Growth Inhibition Zone
[20] = test system: Clavibacter michiganensis subsp. michiganensis 382; test: MIC value study of 1214-CHY4 metabolites; conditions: Clavibacter michiganensis

`[H]/N=C(/N)N[C@H]1[C@H](O)[C@@H](O)[C@H](O[C@@H]2O[C@@H](C)[C@](O)(C=O)[C@H]2O[C@@H]2O[C@@H](CO)[C@H](O)[C@@H](O)[C@@H]2NC)[C@@H](N/C(N)=N\[H])[C@@H]1O` [Streptomycin] gave a zone of inhibition at 200 µg/mL [1] of 3 mm, a zone of inhibition at 200 µg/mL [2] of 10 mm and a zone of inhibition at 200 µg/mL (Erwinia amylovora CA11) of 0 mm. It also gave a zone of inhibition at 200 µg/mL (Erwinia amylovora 88) of 0 mm, a zone of inhibition at 200 µg/mL [3] of 5 mm and an MIC [4] of 50 µg/mL (≈ 86 µM). The zone of inhibition at 200 µg/mL [5] was 3 mm, the zone of inhibition at 200 µg/mL [6] was 0 mm and the zone of inhibition at 200 µg/mL [7] was 0 mm. The zone of inhibition at 200 µg/mL (Erwinia amylovora 1189) was 5 mm, the zone of inhibition at 200 µg/mL (Dickeya dadantii 3937) was 5 mm and the zone of inhibition at 200 µg/mL (Erwinia amylovora DM1) was 0 mm. The zone of inhibition at 200 µg/mL [8] was 5 mm, the zone of inhibition at 200 µg/mL [9] was 22 mm and the MIC [10] was 25 µg/mL (≈ 43 µM). The zone of inhibition at 200 µg/mL [11] was 6 mm, the zone of inhibition at 200 µg/mL [12] was 0 mm and the zone of inhibition at 200 µg/mL [13] was 0 mm. The MIC [14] was 3.13 µg/mL (≈ 5.38 µM), the zone of inhibition at 200 µg/mL [15] was 6 mm and the zone of inhibition at 200 µg/mL [16] was 6 mm. It also gave a zone of inhibition at 200 µg/mL (Erwinia amylovora 110) of 5 mm, a zone of inhibition at 200 µg/mL [17] of 21 mm and a zone of inhibition at 200 µg/mL [18] of 10 mm. For the same molecule, the zone of inhibition at 200 µg/mL [19] was 0 mm and the MIC [20] was 12.5 µg/mL.
